{"source": "patent US20070202492A1", "about": "“Viral Assay” (University Of Warwick, priority 2004, published 2007)", "key": {"BS-C-1 cells": {"test_system": "BS-C-1 cells", "experiment": "Cell viability, MTT assay", "type": "cell-based", "source_text": "For the negative control, cells were killed with 1% w/v SDS."}, "APV-luciferase": {"test_system": "APV-luciferase", "type": "cell-based, avian pneumovirus (APV)"}, "RSV [1]": {"test_system": "RSV", "experiment": "microbe, parasite or virus in culture", "type": "cell-based, human respiratory syncytial virus (RSV)"}, "RSV [2]": {"test_system": "RSV", "conditions": "HeLa cells, Kawana 1987, Watanabe 1994; cited from earlier work"}, "RSV [3]": {"test_system": "RSV", "experiment": "Reduction in plaque number on BS-C-1 cells", "type": "cell-based, human respiratory syncytial virus (RSV)", "conditions": "RSV on BS-C-1 cells; 30 μg/ml drug"}, "APV": {"test_system": "APV", "experiment": "microbe, parasite or virus in culture", "type": "cell-based, avian pneumovirus (APV)"}}, "data": [{"compound": "COc1c(C)c2c(c(O)c1C/C=C(\\C)CCC(=O)O)C(=O)OC2", "note": "[MPA, mycophenolic acid]", "values": [{"measurement": "Toxicity to the cells", "setting": "BS-C-1 cells; 100 ng/ml, FIG. 3D", "result": "not toxic"}, {"measurement": "Antiviral activity against APV (luciferase reporter)", "setting": "APV-luciferase; 100 ng/ml, FIG. 3C", "result": "has antiviral activity"}]}, {"compound": "NC(=O)c1ncn([C@@H]2O[C@H](CO)[C@@H](O)[C@H]2O)n1", "note": "[ribavirin]", "values": [{"measurement": "CAT expression", "setting": "RSV [1]; RSV, 50 μg/ml, FIG. 1", "result": "undetectable"}, {"measurement": "Effect on CAT expression", "setting": "RSV [1]; RSV, lowest concentration tested, 10 μg/ml, FIG. 1", "result": "obvious inhibitory effect"}, {"measurement": "EC50", "setting": "RSV [1]; human respiratory syncytial virus, BSC-1, read-out: EC50 (50% effective concentration)", "result": 4.2, "unit": "µg/mL"}, {"measurement": "EC90", "setting": "RSV [1]; human respiratory syncytial virus, BSC-1, read-out: EC90 (90% effective concentration)", "result": 17.1, "unit": "µg/mL"}, {"measurement": "Toxicity to the cells", "setting": "BS-C-1 cells; concentrations used in the experiment, FIG. 3B", "result": "not toxic"}, {"measurement": "EC50, published values", "setting": "RSV [2]", "result": "3.1 to 6.2", "unit": "µg/mL"}, {"measurement": "Reduction in titre (plaque number)", "setting": "RSV [3]", "result": 100, "unit": "fold"}, {"measurement": "Effect on CAT expression", "setting": "APV; APV, lowest concentration tested, 10 μg/ml, FIG. 1", "result": "obvious inhibitory effect"}, {"measurement": "EC50", "setting": "APV; avian metapneumovirus, BSC-1, read-out: EC50 (50% effective concentration)", "result": 9, "unit": "µg/mL"}, {"measurement": "EC90", "setting": "APV; avian metapneumovirus, BSC-1, read-out: EC90 (90% effective concentration)", "result": 25.4, "unit": "µg/mL"}, {"measurement": "Inhibition of APV (luciferase reporter)", "setting": "APV-luciferase; higher concentrations of ribavirin, FIG. 3A", "result": "strongly inhibited"}]}]}
